In patent US5814488A (priority 1993, dated 1998):
Converted amounts (≈) assume the structure as drawn. Where two headings read alike, the source gives them in different places.

Experiments:
Pseudomonas sp. = experiment: Comparison of MIC and MBC (Tables 5 and 6); assay type: cell-based; settings: Pseudomonas sp.
Text: (§1) […]. […] […]

S. aureus = experiment: Comparison of MIC and MBC (Tables 5 and 6); assay type: cell-based; settings: for MBC range: in µg/mL (unit assumed)
Text: as §1

Klebsiella pneumoniae = experiment: Comparison of MIC and MBC (Tables 5 and 6); assay type: cell-based
Text: as §1

Shigella = experiment: Comparison of MIC and MBC (Tables 5 and 6); assay type: cell-based
Text: as §1

Escherichia coli = experiment: Comparison of MIC and MBC (Tables 5 and 6); assay type: cell-based
Text: as §1

[1] = comparison value for MCR, source not stated in block, cited from earlier work
[2] = Nephrotoxicity to rat after i.m. administration; settings: gentamicin at 150 MKD and 100 MKD from seventh day
[3] = clinical use; cited from earlier work
[4] = Ototoxicity to guinea pig: cochleatoxicity
[5] = Table 5, number 2, unit assumed
[6] = Table 6, 20 strains, in µg/mL (unit assumed)
[7] = Table 6, 20 strains, unit assumed
[8] = Table 5, S. aureus, 31 strains, unit assumed
[9] = Table 5, 20 strains, unit assumed
[10] = Table 5, 10 strains, unit assumed

Which MBC (Pseudomonas sp.; Table 6, 20 strains, read-out: MBC90) does the source give for `NC[C@H]1O[C@H](O[C@H]2[C@H](O)[C@@H](O[C@H]3O[C@H](CO)[C@@H](O)[C@H](N)[C@H]3O)[C@H](N)C[C@@H]2N)[C@H](O)[C@@H](O)[C@@H]1O` [Kanamicin, Kanamycin] here?
Its MBC is 128 µg/mL (≈ 264 µM).

And the MBC (Pseudomonas sp.; Table 6, 20 strains, read-out: MBC range)?
The MBC was 2 to 256 µg/mL (≈ 4.13 to 528 µM).

And the MBC (S. aureus; Staphylococcus aureus, read-out: MBC90)?
The MBC was 64 µg/mL (≈ 132 µM).

And the MBC range (S. aureus; Table 6, S. aureus, 31 strains)?
The MBC range was 0.125-128.

What about the MBC (Klebsiella pneumoniae; read-out: MBC90) of the same compound?
Its MBC is 4 µg/mL (≈ 8.26 µM).

And the MBC (Klebsiella pneumoniae; read-out: MBC range)?
Its MBC is 0.25 to 4 µg/mL (≈ 0.516 to 8.26 µM).

And the MBC (Shigella; Table 6, 10 strains, read-out: MBC90)?
The MBC was 2 µg/mL (≈ 4.13 µM).

And the MBC (Shigella; Table 6, 10 strains, read-out: MBC range)?
Its MBC is 0.5 to 4 µg/mL (≈ 1.03 to 8.26 µM).

And the MBC (Escherichia coli; read-out: MBC90)?
The MBC was 8 µg/mL (≈ 16.5 µM).

And the MBC (Escherichia coli; read-out: MBC range)?
The MBC was 0.5 to 128 µg/mL (≈ 1.03 to 264 µM).

What does the source list for `CNC[C@@H]1CC[C@@H](N)[C@@H](O[C@H]2[C@H](O)[C@@H](O[C@H]3OC[C@](C)(O)[C@H](NC)[C@H]3O)[C@H](N)C[C@@H]2N)O1` [MCR, Micronomicin]?
dosage of general safety ([1]; 129600 min): 25 MKD; dosage showing apparent intoxication [1]: 63 MKD

Which dead animals [2] does the source give for Gentamicin here?
The dead animals was “gradually increased”.

What about the side-effects [3] of the same compound?
Its side-effects is “side-effects of ototoxicity and nephrotoxicity”.

And the MBC50 (Pseudomonas sp.; [5])?
The MBC50 was 2 µg/mL.

What about the MBC90 (Pseudomonas sp.; [5]) of the same compound?
Its MBC90 is 8 µg/mL.

What about the MIC50 (Pseudomonas sp.; [5]) of the same compound?
Its MIC50 is 2 µg/mL.

And the MIC90 (Pseudomonas sp.; [5])?
Its MIC90 is 4 µg/mL.

What about the MBC range (Pseudomonas sp.; [6]) of the same compound?
Its MBC range is 0.5-16.

What about the MBC90 (Pseudomonas sp.; [7]) of the same compound?
The MBC90 was 8 µg/mL.

And the MBC50 (S. aureus; [8])?
Its MBC50 is 0.5 µg/mL.

What about the MBC90 (S. aureus; [8]) of the same compound?
The MBC90 was 2 µg/mL.

And the MIC50 (S. aureus; [8])?
Its MIC50 is 0.125 µg/mL.

And the MIC90 (S. aureus; [8])?
The MIC90 was 0.5 µg/mL.

What about the MBC range (S. aureus; Table 6, S. aureus, 31 strains) of the same compound?
The MBC range was 0.062.

What about the MBC90 (S. aureus; Table 6, S. aureus, 31 strains, unit assumed) of the same compound?
Its MBC90 is 2 µg/mL.

And the MBC50 (Klebsiella pneumoniae; [9])?
Its MBC50 is 0.25 µg/mL.

And the MBC90 (Klebsiella pneumoniae; [9])?
The MBC90 was 1 µg/mL.

What about the MIC50 (Klebsiella pneumoniae; [9]) of the same compound?
The MIC50 was 0.125 µg/mL.

What about the MIC90 (Klebsiella pneumoniae; [9]) of the same compound?
The MIC90 was 0.25 µg/mL.

And the MBC range (Klebsiella pneumoniae; [6])?
The MBC range was 0.062-2.

What about the MBC90 (Klebsiella pneumoniae; [7]) of the same compound?
The MBC90 was 1 µg/mL.

What about the MBC50 (Shigella; [10]) of the same compound?
The MBC50 was 0.25 µg/mL.

What about the MBC90 (Shigella; [10]) of the same compound?
Its MBC90 is 1 µg/mL.

What about the MIC90 (Shigella; [10]) of the same compound?
Its MIC90 is 0.25 µg/mL.

And the MBC range (Shigella; Table 6, 10 strains, in µg/mL (unit assumed))?
The MBC range was 0.125-1.

And the MBC90 (Shigella; Table 6, 10 strains, unit assumed)?
The MBC90 was 1 µg/mL.

What about the MBC50 (Escherichia coli; [9]) of the same compound?
The MBC50 was 0.5 µg/mL.

What about the MBC90 (Escherichia coli; [9]) of the same compound?
Its MBC90 is 1 µg/mL.

And the MIC50 (Escherichia coli; [9])?
The MIC50 was 0.125 µg/mL.

And the MIC90 (Escherichia coli; [9])?
The MIC90 was 0.25 µg/mL.

And the MBC range (Escherichia coli; [6])?
The MBC range was 0.125-8.

What about the MBC90 (Escherichia coli; [7]) of the same compound?
Its MBC90 is 1 µg/mL.

What about the hair cell morphology ([4]; high dosage) of the same compound?
Its hair cell morphology is “large number of necrotized hair cell, even stand cell and nerve cell were observed”.

What about the auditory function ([4]; high dosages) of the same compound?
Its auditory function is “nearly all the auditory function of the animals were lost”.

And the hair cell morphology ([4]; low and middle dosages)?
The hair cell morphology was “scattered necrotized hair cell and scar formation were observed”.

And the ABR threshold ([4]; middle dosages)?
Its ABR threshold is “increases of ABR threshold were observed”.
